The values below come from ChEMBL document CHEMBL1201862, “PubChem BioAssay data set” (2004).

Values joined by “and” are separate entries in the source; they are usually repeats but may differ in a detail not shown here. Equal values may be shown once. Active and inactive are the calls of the source.

Test [1] has as its target Cytochrome P450 3A4 (Homo sapiens, UniProt P08684). The following applies: Potency.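 Further: confirmatory qHTS run detecting inhibitors and substrates of CYP3A4.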
The target of test [2] is T1, Bcl-2-like protein 10 (Homo sapiens, UniProt Q9HD36).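 Further: fluorescence polarization from a fluorescein-labelled TR3 peptide binding purified Bcl-B.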
T1 sequence (Q9HD36 whole entry): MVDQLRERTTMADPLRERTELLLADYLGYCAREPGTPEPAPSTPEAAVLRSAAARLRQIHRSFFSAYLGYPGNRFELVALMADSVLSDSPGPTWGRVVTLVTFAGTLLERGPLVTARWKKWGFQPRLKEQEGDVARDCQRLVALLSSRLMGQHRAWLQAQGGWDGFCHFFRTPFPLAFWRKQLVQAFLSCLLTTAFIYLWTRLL
Briefly: displacers of TR3 peptide from Bcl-B, primary screen, selectivity assay for Bfl-1 inhibitor project, biochemical, fluorescence polarization, FITC-TR3 peptide (AID 748). (In general: In fluorescence polarisation assays a small probe gives low polarisation when free and higher when bound to something large.)

Test [3] addresses T2, Probable nicotinate-nucleotide adenylyltransferase (Staphylococcus aureus (strain N315), UniProt P65502). It counts as functional, Staphylococcus aureus subsp. aureus N315. The following applies: read-out: IC50_Mean.
The test system of test [4] is Streptococcus sp. 'group A'. Briefly: growth inhibition of control SK(-) GAS strain, dose response, counter-screen for streptokinase expression inhibitor project, luminescence, kanamycin, BacTiterGlo, confirmation (AID 1900). The test is classed as functional, organism-based. (A counterscreen serves to expose hits that act by an unwanted route or on another target.)

Test [5] has as its target T2, Probable nicotinate-nucleotide adenylyltransferase. The test is classed as functional, Staphylococcus aureus subsp. aureus N315.
In test [6] the target is T3, Streptokinase A (Streptococcus pyogenes serotype M1, UniProt P10520).
T3 sequence (P10520 whole entry): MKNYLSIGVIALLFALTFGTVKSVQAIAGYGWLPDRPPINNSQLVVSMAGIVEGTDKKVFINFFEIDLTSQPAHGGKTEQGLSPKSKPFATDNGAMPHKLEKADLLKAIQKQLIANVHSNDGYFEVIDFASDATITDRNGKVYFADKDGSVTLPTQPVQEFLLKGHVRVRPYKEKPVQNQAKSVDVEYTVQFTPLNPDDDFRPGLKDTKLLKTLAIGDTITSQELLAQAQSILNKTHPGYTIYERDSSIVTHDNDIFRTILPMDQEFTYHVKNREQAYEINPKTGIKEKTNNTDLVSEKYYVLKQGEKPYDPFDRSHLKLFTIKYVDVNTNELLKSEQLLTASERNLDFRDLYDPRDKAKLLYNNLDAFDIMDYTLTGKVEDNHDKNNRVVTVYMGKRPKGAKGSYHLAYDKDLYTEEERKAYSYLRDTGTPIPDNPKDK
Briefly: S. pyogenes streptokinase expression inhibitors, potency, dose response, plasminogen activation absorbance, OD405 (AID 1914).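 Further: secreted streptokinase activity via plasminogen activation per viability signal from cell pellet.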 The test is classed as functional, Streptococcus pyogenes M1 GAS.

The test system of test [7] is Streptococcus. Kind of test: Group A Streptococcus viability loss, dose response, counter-screen for streptokinase expression inhibitor project, luminescence, BacTiterGlo (AID 1915).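 Further: potency for reduction of bacterial viability or growth.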 The test is classed as functional, organism-based.
Test [8] is described as follows: inhibitors of intracellular T. cruzi replication, confirmation, NIH3T3 host cells, beta-gal luminescence (AID 2044).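 Further: intracellular parasites grown in NIH/3T3 mouse fibroblasts as host cells; luminescent beta-galactosidase reporter signal from transgenic T. cruzi replicating inside host cells; inhibitors lower the luminescence signal.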 It counts as functional, cell-based.
Test [9] can be described thus: cytotoxicity toward NIH3T3 fibroblasts, dose response, counter-screen, cell-based, ATP luminescence, mouse fibroblasts (AID 2010).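 Further: cells exposed to compound for about 90 hours before reading.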 The test is classed as functional.
Test [10] can be described thus: THP-1 cell cytotoxicity, dose response, cytotoxicity control for non-replicating M. tuberculosis project (AID 489025). It counts as functional.
Test [11] in a line: cells. The test is classed as functional.
The nature of test [12]: Vero E6 cell cytotoxicity, dose response, cytotoxicity control for non-replicating M. tuberculosis project, secondary assay (AID 492998). The test is classed as functional, VeroE6. The following applies: Vero C1008.
The target of test [13] is T4, Calpain-2 catalytic subunit (Sus scrofa, UniProt P43367).
T4 sequence (P43367 whole entry): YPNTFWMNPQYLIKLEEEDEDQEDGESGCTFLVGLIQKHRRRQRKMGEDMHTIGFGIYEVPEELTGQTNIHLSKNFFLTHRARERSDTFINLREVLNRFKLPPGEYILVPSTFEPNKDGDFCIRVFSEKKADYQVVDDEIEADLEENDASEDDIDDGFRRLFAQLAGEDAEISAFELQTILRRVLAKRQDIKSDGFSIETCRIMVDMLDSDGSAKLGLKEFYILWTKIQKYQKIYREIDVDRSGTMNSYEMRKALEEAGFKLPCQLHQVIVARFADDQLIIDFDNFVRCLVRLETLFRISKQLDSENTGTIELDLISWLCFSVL
Kind of test: pig calpain II inhibitor potency, dose response, biochemical, fluorogenic peptide substrate (AID 1420). The test is classed as functional.

The nature of test [14]: cells. The test is classed as functional, cell-based.
Test [15] is described as follows: cells. The test is classed as functional, cell-based. The source holds these as a separate data set.
Test [16] addresses DNA dC->dU-editing enzyme APOBEC-3G (Homo sapiens, UniProt Q9HC16). Briefly: Dose Response confirmation of small molecule APOBEC3G DNA Deaminase Inhibitors via a fluorescence-based single-stranded DNA deaminase assay. [Related pubchem assays (depositor defined):AID493012, AID493028]. The test is classed as functional.
Test [17] concerns the target Large T antigen (Simian virus 40, UniProt P03070). The test is classed as functional, Betapolyomavirus macacae.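 Further: Confirmatory-stage PubChem screen for compounds that inhibit SV40 T antigen.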
Test [18] can be described thus: HepG2 cell cytotoxicity, dose response, cytotoxicity control for non-replicating M. tuberculosis project (AID 489018). It counts as functional. The following applies: Mycobacterium tuberculosis.
The target in test [19] is T5, Tyrosyl-DNA phosphodiesterase 2 (Homo sapiens, UniProt O95551).
T5 sequence (O95551 whole entry): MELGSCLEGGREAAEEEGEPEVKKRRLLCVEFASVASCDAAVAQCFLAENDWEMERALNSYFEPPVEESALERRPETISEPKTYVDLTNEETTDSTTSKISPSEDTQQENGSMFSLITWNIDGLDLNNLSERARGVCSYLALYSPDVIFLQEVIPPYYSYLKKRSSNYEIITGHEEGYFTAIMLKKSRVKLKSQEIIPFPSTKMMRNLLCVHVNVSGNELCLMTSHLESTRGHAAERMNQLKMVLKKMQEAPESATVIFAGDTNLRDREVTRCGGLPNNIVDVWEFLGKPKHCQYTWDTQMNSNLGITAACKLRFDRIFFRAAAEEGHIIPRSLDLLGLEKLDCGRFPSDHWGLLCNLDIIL
Kind of test: human TDP2 enzyme inhibitors, dose response, biochemical, epi absorbance, IC50 (AID 743297).

Test [20] addresses T6, Mannose-6-phosphate isomerase (Homo sapiens, UniProt P34949).
T6 sequence (P34949 whole entry): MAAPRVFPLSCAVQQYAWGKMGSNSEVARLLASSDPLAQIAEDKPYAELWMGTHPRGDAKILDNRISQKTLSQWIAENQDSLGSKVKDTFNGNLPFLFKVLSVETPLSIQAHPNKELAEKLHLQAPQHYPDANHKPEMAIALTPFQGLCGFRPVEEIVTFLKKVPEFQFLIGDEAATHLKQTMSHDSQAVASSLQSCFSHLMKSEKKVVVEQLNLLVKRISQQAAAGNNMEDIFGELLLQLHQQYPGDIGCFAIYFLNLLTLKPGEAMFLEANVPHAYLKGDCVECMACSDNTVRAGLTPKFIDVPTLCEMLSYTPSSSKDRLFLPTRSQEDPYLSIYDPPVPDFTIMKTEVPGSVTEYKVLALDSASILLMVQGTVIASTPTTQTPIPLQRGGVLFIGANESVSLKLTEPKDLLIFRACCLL
Briefly: inhibitors of human PMI, primary screen, biochemical, fluorescence intensity, coupled assay (AID 1209).
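Wherever IC50 Mean is given: confirmatory dose-response retesting of NadD inhibitor hits first found in an ultra-high-throughput screen.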

Sequence of Cytochrome P450 3A4 (P08684 whole entry): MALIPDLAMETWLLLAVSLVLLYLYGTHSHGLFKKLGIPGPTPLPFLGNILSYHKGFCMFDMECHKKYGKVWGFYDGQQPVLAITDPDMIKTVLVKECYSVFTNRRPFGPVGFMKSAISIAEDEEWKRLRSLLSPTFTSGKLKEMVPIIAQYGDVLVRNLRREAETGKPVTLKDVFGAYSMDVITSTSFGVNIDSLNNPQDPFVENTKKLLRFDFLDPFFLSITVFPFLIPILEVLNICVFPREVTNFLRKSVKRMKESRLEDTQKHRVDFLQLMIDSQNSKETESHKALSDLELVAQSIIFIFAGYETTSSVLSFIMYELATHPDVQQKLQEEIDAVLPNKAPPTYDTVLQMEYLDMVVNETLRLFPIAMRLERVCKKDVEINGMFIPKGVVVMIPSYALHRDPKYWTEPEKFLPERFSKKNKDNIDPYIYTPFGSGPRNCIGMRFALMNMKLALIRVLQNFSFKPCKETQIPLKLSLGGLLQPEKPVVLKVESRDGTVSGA
T2 sequence (P65502 whole entry): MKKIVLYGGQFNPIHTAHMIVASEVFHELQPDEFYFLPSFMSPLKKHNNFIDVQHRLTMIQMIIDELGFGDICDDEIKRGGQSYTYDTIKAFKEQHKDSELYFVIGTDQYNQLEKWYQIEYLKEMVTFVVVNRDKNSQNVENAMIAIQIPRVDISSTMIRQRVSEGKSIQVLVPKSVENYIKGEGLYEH
Sequence of DNA dC->dU-editing enzyme APOBEC-3G (Q9HC16 whole entry): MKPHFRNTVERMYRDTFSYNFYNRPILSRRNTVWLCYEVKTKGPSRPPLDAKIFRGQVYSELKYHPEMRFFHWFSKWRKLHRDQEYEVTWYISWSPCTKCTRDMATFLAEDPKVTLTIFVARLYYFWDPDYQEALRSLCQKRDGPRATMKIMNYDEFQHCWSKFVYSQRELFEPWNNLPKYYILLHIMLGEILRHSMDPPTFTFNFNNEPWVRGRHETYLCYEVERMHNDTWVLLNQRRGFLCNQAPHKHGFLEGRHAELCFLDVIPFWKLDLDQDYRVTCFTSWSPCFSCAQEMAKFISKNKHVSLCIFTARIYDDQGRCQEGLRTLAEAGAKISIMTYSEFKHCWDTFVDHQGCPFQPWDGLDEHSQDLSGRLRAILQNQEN
Sequence of Large T antigen (P03070 whole entry): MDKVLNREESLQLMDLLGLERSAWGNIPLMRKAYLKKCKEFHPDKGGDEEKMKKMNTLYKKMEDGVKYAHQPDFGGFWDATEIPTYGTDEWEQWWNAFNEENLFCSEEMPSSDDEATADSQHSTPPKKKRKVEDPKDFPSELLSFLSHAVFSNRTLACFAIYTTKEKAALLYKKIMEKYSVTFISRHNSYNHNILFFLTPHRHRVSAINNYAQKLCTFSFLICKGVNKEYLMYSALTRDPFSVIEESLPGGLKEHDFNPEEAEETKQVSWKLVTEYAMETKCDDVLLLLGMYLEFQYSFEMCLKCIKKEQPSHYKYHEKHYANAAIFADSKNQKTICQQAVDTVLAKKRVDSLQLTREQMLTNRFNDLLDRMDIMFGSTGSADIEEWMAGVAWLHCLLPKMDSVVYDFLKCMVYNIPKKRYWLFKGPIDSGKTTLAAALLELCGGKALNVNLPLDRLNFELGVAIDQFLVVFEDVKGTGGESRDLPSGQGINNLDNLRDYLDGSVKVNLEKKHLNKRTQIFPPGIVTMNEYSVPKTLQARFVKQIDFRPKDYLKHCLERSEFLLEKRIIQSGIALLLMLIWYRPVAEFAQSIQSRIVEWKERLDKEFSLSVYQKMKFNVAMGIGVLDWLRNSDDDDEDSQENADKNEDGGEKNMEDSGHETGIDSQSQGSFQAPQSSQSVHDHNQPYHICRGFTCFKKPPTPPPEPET

By AC50 is commonly meant the midpoint of the concentration-response curve, whichever way the signal moves. For the compound `CCN(CC)CCCC(C)n1c(-c2ccccc2)nc2c(NCCOC)nc(C)nc21` (stereo unspecified), in [1], the AC50 was 20 µM (inconclusive).

Turning to `O=C1c2ccccc2C(=O)c2c1cccc2N1CCN(CCO)CC1`, the IC50 in test [2] was > 25 µM (inactive).

By EC50 is commonly meant the concentration needed to bring the measured effect to its halfway point. For the compound `Cc1ccnc(NS(=O)(=O)c2ccc(NC(=O)c3cc(-c4ccc(Br)cc4)nc4ccccc34)cc2)n1`, the results for the IC50 in [3] and in [5] were 20.9 µM (active) and 7.03 µM (active), respectively. Moreover, the EC50 was 7.74 µM (active) in test [4], 5.84 µM (inconclusive) in test [6] and 68.9 µM (active) in [7].

As a reminder, the CC50 is the concentration that lowers cell viability or growth by half. Take `Cc1cc(C(=O)N/N=C/c2ccc([N+](=O)[O-])s2)[nH]n1`: the EC50 was 1.86 µM (active) in test [4], 0.612 µM (active) in test [8], > 60 µM (not active) in [9] and 2.69 µM (active) in test [7]. The values for the CC50 in [10] and in test [12] were > 40 µM (active) and 16.9 µM (active), respectively. Further, the IC50 in [11] was 8.88 µM (active); in test [13], 6.84 µM (not active).

As to `O=C(COC(=O)c1ccccc1Nc1ccccc1)NCc1ccccc1Cl`, the EC50 in test [14] and in [15] was > 350 µM (not active) throughout.

For the compound `CCCCNC(=O)COC(=O)c1ccc(Cl)c(S(=O)(=O)N2CCCC2)c1`, the IC50 in test [2] is > 100 µM (inactive).

As for `Cc1c(N2C(=O)/C(=C\c3ccccc3O)SC2=S)c(=O)n(-c2ccccc2)n1C`, the IC50 in test [16] was 46.2 µM (active); in test [17], 45.2 µM (active).

For `COC(=O)C1=C(C)N(Cc2ccccc2)[C@]23O[C@](C(=O)OC)(C(=O)N2C1c1ccccc1)C1C(=O)N(c2ccccc2)C(=O)C13` (stereo partly specified), the AC50 in test [1] is 5.01 µM (inconclusive) and 3.98 µM (inconclusive).

For `Cc1nc(C(=O)NNC(=O)c2ccc(Cl)cc2)c(C(F)(F)F)o1`, the CC50 was > 20 µM (active) in [18], 27.8 µM (active) in test [10] and > 20 µM (active) in test [12]. In addition, the IC50 in [11] was 44.9 µM (active).

Regarding `O=C(NC(c1ccccc1)c1ccccc1)C1CCCO1` (stereo unspecified), the EC50 in test [14] and in test [15] was > 350 µM (not active) in each case.

With `O=C(Nc1c(-c2ccc3c(c2)OCO3)[nH][nH]c1=O)c1ccc2c(c1)OCO2`, the IC50 in test [19] is > 129 µM (inactive).

Take `COc1ccc(OC)c(NC2=NCCCS2)c1`: the EC50 in test [14] and in [15] was > 350 µM (not active) each time.

For `COc1cccc(C(=O)N2N=C(c3ccccn3)CC2(O)C(F)(F)F)c1` (stereo unspecified), the figures for the CC50 in test [18], in test [10] and in [12] were > 20 µM (active), 9.99 µM (active) and 10.1 µM (active), respectively. Besides, in test [11], the IC50 was 8.68 µM (active).

`CCC(=O)Nc1cccc(NC(C)=O)c1`: the IC50 in test [2] was 56.6 µM (inactive).

For `CN(C)C(S)=Nc1nc2ccccc2s1`, the EC50 in test [8] is 2.48 µM (active); in test [9], > 60 µM (not active). For the same compound, in [20], the IC50 is 3.79 µM (active).

As for `C[C@@H](CO)NC(=O)[C@@H]1C=C2c3cccc4[nH]cc(c34)C[C@H]2N(C)C1` [ERGONOVINE], the AC50 in [1] was 20 µM (inconclusive).

In the case of `CC1CCC2C(=O)OC(Cc3ccccc3)CN2C1c1ccc(Br)cc1` (stereo unspecified), the AC50 in [1] was 3.98 µM (inconclusive) and 5.01 µM (inconclusive).

For the compound `OCC(O)Cc1ccc2c(c1)OCO2` (stereo unspecified) [SAFROLGLYCOL], the AC50 in test [1] is 39.8 µM (inconclusive).
